# In patent publication US20250177341A1, “DIETARY TRIPROPIONIN SUPPLEMENTATION TO REDUCE ADIPOSITY AND IMPROVE GLUCOSE HOMEOSTASIS” (Wisconsin Alumni Research Foundation, priority 2023, published 2025):
# How the values were obtained:
# [1] = Experiment 2: obese HFD-fed mice switched to tripropionin diet, body weight and body composition; settings: mouse, in vivo
# Experimental: (§1) We next tested the anti-adipogenic effects of tripropionin in metabolically challenged mice. To do this, we fed a HFD for 10 weeks to induce insulin resistance and obesity and then switched mice to either the tripropionin or glycerol diet for 5 weeks (FIG. 2A). […] Mice were monitored in metabolic cages to measure respiratory quotient (RQ) for the initial 48 hours after diet change.
# (§2) Experiment 2: Male C57BL/6J mice were ordered from Jackson Laboratories (Bar Harbor, ME) maintained on a chow diet and housed in a chlorinated water rack system. Mice were switched to the HFD and maintained on this diet for 10 weeks at which point mice were fed either the glycerol or the tripropionin diets (n=6 mice per group). Mice were transferred to singly housed metabolic cages, as described above, to measure respiratory quotient, body weight, food intake, and energy expenditure. Five weeks after diet change mice underwent an OGTT and then an ITT one week later.
# [2] = Experiment 3: insulin tolerance test in humanized gnotobiotic mice; settings: mouse, in vivo
# From the text: We colonized germ-free mice with a complex community of human fecal microbiota, induced metabolic dysregulation though feeding a high-fat diet for 8 weeks, and subjected the mice to a tripropionin- or glycerol-supplemented diet (FIG. 3A).
# Experiment 3: Germ-free (GF) male mice (C57BL/6J) were housed in sterile isolators and maintained on autoclaved chow (LabDiet 5021; LabDiet, St. Louis, MO) and sterile water ad libitum. GF cages contained Alpha-dri® (Shepherd Specialty Papers, Kalamazoo, MI) bedding along with paper huts (Bio-Huts, Bio-Serv, Flemington, NJ) and ALPHA-twist™ (Shepherd Specialty Papers) for enrichment. Monthly tests were conducted in each isolator to confirm GF status of the mice. These included a growth test of feces in rich media for 7 days at 37° C. and checking for amplification of the 16S rRNA gene using universal primers. At 5 and 6 weeks of age mice were placed in Allentown Sentry SPP IVC rack system (Allentown Inc., Allentown, NJ) and fed a HFD (TD08811, Envigo). Mice were then colonized with fecal microbiota from a human donor fecal specimen via gavage with a fecal slurry. […]
# The ITT was performed one week after the OGTT. […] Blood glucose levels were monitored as described for OGTT. Insulin tolerance curves are expressed as the relative ratio of blood glucose from the baseline.
# [3] = Experiment 1: high-fat diet supplemented with tripropionin, body weight, food consumption, body composition by NMR; set-up: species or system mice; settings: mouse, in vivo
# From the text: Experiment 1: Male C57BL/6J mice were ordered from Jackson Laboratories (Bar Harbor, ME) maintained on chow (Teklad 8604, Inotiv, Madison, WI) and housed in a chlorinated water rack system in cages with cornhusk bedding and ALPHA-twist™. At 11 weeks of age, the mice were switched to either a glycerol (TD220541) or tripropionin diet (TD220540) from Envigo (Madison, WI) with a sample size of 6 mice per treatment. […] Mice were maintained on their respective diets for an additional 8 weeks and then transferred to single-housed metabolic cages (Promethion Core system, Sable Systems International, North Las Vegas, NV) where body weight food intake and activity level was monitored. During this period, fat and lean mass were monitored using nuclear magnetic resonance (NMR) machine fitted for mice (LF90 Body Composition Analyzer, Bruker Corporation, Billerica, MA). […]
# [4] = Experiment 2: respiratory quotient in metabolic cages; set-up: species or system mice; settings: mouse, in vivo
# Experimental: as §1, §2
# [5] = Experiment 3: gnotobiotic mice colonized with human fecal microbiota, body weight; settings: mouse, in vivo
# From the text: To check whether the effects of tripropionin supplementation are consistent in the context of a human microbiome, we used a gnotobiotic mouse model colonized with human fecal microbiota. We colonized germ-free mice with a complex community of human fecal microbiota, induced metabolic dysregulation though feeding a high-fat diet for 8 weeks, and subjected the mice to a tripropionin- or glycerol-supplemented diet (FIG. 3A).
# At 5 and 6 weeks of age mice were placed in Allentown Sentry SPP IVC rack system (Allentown Inc., Allentown, NJ) and fed a HFD (TD08811, Envigo). Mice were then colonized with fecal microbiota from a human donor fecal specimen via gavage with a fecal slurry. The fecal slurry was prepared by collecting 200-500 mg of frozen feces and adding it to anaerobic CMM broth in an anaerobic chamber. The mixture was vortexed for 1 minute and then placed on ice until gavaging (less than 1 hour after preparation). Mice were maintained on the HFD for an additional 6 weeks before being switched to either the glycerol or tripropionin diets (n=4-5 per group). Four weeks after diet change mice were subjected to an OGTT followed by an ITT a week later. Mice were euthanized one week after ITT.
# [6] = Experiment 1: insulin tolerance test; set-up: species or system mice; settings: mouse, in vivo
# From the text: Experiment 1: Male C57BL/6J mice were ordered from Jackson Laboratories (Bar Harbor, ME) maintained on chow (Teklad 8604, Inotiv, Madison, WI) and housed in a chlorinated water rack system in cages with cornhusk bedding and ALPHA-twist™. At 11 weeks of age, the mice were switched to either a glycerol (TD220541) or tripropionin diet (TD220540) from Envigo (Madison, WI) with a sample size of 6 mice per treatment. […] One week later, mice were subjected to an ITT. […] Mice were sacrificed at 24 weeks of age.
# The ITT was performed one week after the OGTT. Mice were fasted for 4 hours in fresh cages and baseline blood glucose levels were taken from tail blood. Insulin was administered at a rate of 0.75 IU per Kg body weight via IP injection. Blood glucose levels were monitored as described for OGTT. Insulin tolerance curves are expressed as the relative ratio of blood glucose from the baseline.
# [7] = Experiment 1: oral glucose tolerance test; assay type: in vivo; settings: four weeks after diet change, vs glycerol-fed mice
# Experimental: To assess the effect of tripropionin on adiposity and glucose homeostasis, we fed 11-week-old male C57BL/6J mice a high-fat diet (45% kcal from fat) (HFD) supplemented with either 5.3% tripropionin (w/w) or 5.3% glycerol as a control. Mice were maintained on these diets for 13 weeks, during which food consumption and body weight were measured and an oral glucose tolerance test (OGTT) and insulin tolerance test (ITT) were performed (FIG. 1A). Additionally, body composition was monitored via NMR during the last 2 weeks before sacrifice.
# Experiment 1: Male C57BL/6J mice were ordered from Jackson Laboratories (Bar Harbor, ME) maintained on chow (Teklad 8604, Inotiv, Madison, WI) and housed in a chlorinated water rack system in cages with cornhusk bedding and ALPHA-twist™. […] Mice were maintained on their respective diets for an additional 8 weeks and then transferred to single-housed metabolic cages (Promethion Core system, Sable Systems International, North Las Vegas, NV) where body weight food intake and activity level was monitored. During this period, fat and lean mass were monitored using nuclear magnetic resonance (NMR) machine fitted for mice (LF90 Body Composition Analyzer, Bruker Corporation, Billerica, MA). […]
# Prior to OGTT, mice were placed in fresh cages fasted for 4 hours. […] Blood glucose levels were measured at regular intervals between 15 and 120 minutes.
compound,measurement,setting,value
"CCC(=O)OCC(COC(=O)CC)OC(=O)CC [tripropionin, 2,3-di(propanoyloxy) propyl propanoate]",body weight,[1],reduced body weight
same,fat mass (NMR),[1],reduction in fat mass
same,onset of body weight reduction,[1],significant differences observed just three days after the diet change
same,insulin sensitivity (ITT),[2],improved insulin sensitivity
same,body weight,[3],significantly reduced body weight
same,fat mass (NMR),[3],primarily due to differences in fat mass
same,respiratory quotient (RQ),[4],reduced
same,body weight,[5],reduced body weight
same,insulin sensitivity (ITT),[6],improved insulin sensitivity
same,glucose tolerance (OGTT),[7],improved glucose tolerance
